Activity calls are given as the source filed them.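 Rule for the calls: active = compounds giving half or more protection of infected cells from virus-caused growth loss, again on retest; inactive = the rest.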 Where a SMILES comes first, the peptide text is derived from it. [ ]: non-standard residue; d: D form. The star is where a group is joined. ξ: configuration not given here. ξD = NC(CC(=O)O)C(=O)O; Boc = CC(C)(C)OC(=O)*; Aib = CC(C)(N)C(=O)O; OtBu = CC(C)(C)O*
Test system: CEM cells HIV-1 protection, formazan growth assay
Experiment: NCI AIDS Antiviral Assay
Details: for IC50: measured here: growth of uninfected CEM cells
Summary of the method: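 Protection of CEM cells against HIV-1 measured as cell growth via soluble formazan read-out, with five concentrations tested on both infected and uninfected cells; failure to protect may reflect toxicity.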

SMILES	EC50 [µM]	IC50 [µM]	outcome
CC(=O)OCC12C(=O)C[C@@H](C)C3(CC(c4ccoc4)OC3=O)C1CCC(OC(C)=O)C21CO1 (stereo not given in full)	> 200	135	
CSc1ncnc2c1ncn2CCC(=O)O	> 200	> 200	
CC1=C(C)C(=O)C(C2=CC(=O)C=CC2=O)=C(C2=CC(=O)C=CC2=O)C1=O	> 200	9.77	
O=C(O)CCCc1ccc(N(CCCl)CCCl)cc1	> 200	14.8	
CN(N)C(=O)NCCCl	> 200	> 200	
[Cu+2].[O-]/C(=N\N=C/c1cccc(C(F)(F)F)c1)c1ccncc1.[O-]/C(=N\N=C\c1cccc(C(F)(F)F)c1)c1ccncc1	> 100	5.62	
CCc1n[nH]c(=S)n1/N=C/c1ccc(-c2ccc([N+](=O)[O-])cc2)o1	> 11	> 11	
Cc1ccc(NC(=O)CC(=O)n2nc(C)c(N=Nc3ccccc3C(=O)O)c2C)cc1	> 427	> 427	
CS(=O)(=O)CC1=Nc2nnc(CCCCCCCc3nnc4n3C(=O)C(CS(C)(=O)=O)=N4)n2C1=O	> 10	> 10	
Cc1ccc(SCc2nc3ccccc3c(C)[n+]2[O-])cc1	9.33	49	
CCOC(=O)CC(=O)NC1CC2CCC1(C)C2(C)C (stereo not given)	> 200	> 200	
C1CCN2CC3CONC3C2C1 (stereo not given)	> 1480	> 1480	
CCP(=O)(OC)C1=CCN(C(=O)OCC[Si](C)(C)C)CC1 (stereo not given)	> 200	> 200	
CC(=O)CCCCn1c(=O)c2c(nc(Br)n2C)n(C)c1=O	> 200	52.5	
CC(C)/C=N\N1C(N)=C(C#N)C(C#N)(C#N)C1C(C)C (stereo not given)	> 200	41.7	
CC(=O)N(C(=O)CC(=O)N1N=C(C)C(N=Nc2cccc([N+](=O)[O-])c2)C1=O)c1ccc(Cl)cc1 (stereo not given)	> 170	72.4	
COc1cc(OC)c(/C=C\c2cc(/C=C/c3c(OC)cc(OC)cc3OC)c3ccccc3[n+]2C)c(OC)c1	> 7.94	0.355	
OCC(O)C(OC1OC(CO)C(O)C(O)C1O)c1nn(-c2ccccc2)c2nc3cc(Cl)ccc3nc12 (stereo not given)			inactive
O=C(O)CCSC(=O)Nc1ccccc1F			inactive
O=c1c2nc3ccccc3c(=O)n2ncn1-c1ccccc1Cl	> 200	> 200	
Cc1ccc(C(=O)N(C(C)C)C(C)C)cc1N=NN(C)C	> 123	97.7	

SMILES	EC50 [µM]	IC50 [µM]	outcome
COc1cc(NS(=O)(=O)c2ccc(N)cc2)nc(OC)n1	> 200	> 200	
CCOC(=O)C(NC(=O)c1ccccc1)(Nc1ccc(Cl)cc1C(F)(F)F)C(F)(F)F (stereo not given)	> 200	3.55	
C(=C\c1cc(CCc2nc3ccccc3[nH]2)[nH]n1)/c1ccccc1	> 83.2	> 83.2	
CC(C)C(CCl)NC(=O)c1cccc(C(=O)N[C@H](CCl)C(C)C)n1 (stereo in doubt)	> 69.2	> 69.2	
COC(OC)c1cccnc1C	> 1480	1050	
CC(C)N(C(C)C)P(OCCC#N)OC1CC(n2cnc3c(=O)[nH]cnc32)OC1COC(=O)NCCCCCCNC(=O)OC(C)(C)c1ccc(-c2ccccc2)cc1 (stereo not given)	> 8.71	> 8.71	
CN(C)CCN(C)CC1COC(C)(C)O1 (stereo not given)			inactive
COC(=O)c1ccc(Cc2ccc(C(=O)OC)o2)o1	> 191	> 191	
CC12CCC(O)CC1=CCC1C2CCC2(C)C3=NN=CC3CC12 (stereo not given)	> 200	12	
COC1=C(C2=NC(C)(C)CO2)c2ccccc2C(C/C=C/[Si](C)(C)C)C1 (stereo not given)	> 26.9	> 26.9	
O=c1cc(-c2ccccc2)oc2cc(OCC(O)COc3ccc4c(=O)cc(-c5ccccc5)oc4c3)ccc12	> 25.7	> 25.7	
N#CC(C#N)=C1C(C#N)=C(N)NC12OCCO2	> 200	> 200	
COc1ccc2c(c1)c1ccc3c(c1n2C)C(=O)C=CC3=O	> 89.1	2.95	
CC(=O)N1N=C(c2ccccc2Nc2ccccc2C2=NN(C(C)=O)C(c3ccccc3)O2)OC1c1ccccc1 (stereo not given)	> 200	6.17	
Cc1cc(C)cc(Nc2cc(=O)[nH]c(=O)[nH]2)c1	> 200	> 200	
COc1ccc(-c2oc3cc(OC)c(OC)c(O)c3c(=O)c2O)cc1O	> 200	1.05	
CCCOC(=O)C(C)(C)C(OP(=O)(OCCC)OCCC)=C(C)C	> 200	105	
N#CC1=C(N)C(C#N)(C#N)C2(CCCC2)C2CCC=C12 (stereo not given)			inactive
CC1=C(C#N)C2C(=C(N)Oc3ccccc32)C(N)=N1 (stereo not given)	> 200	27.5	
Cc1cc(NS(=O)(=O)c2ccc(N=Nc3c(Nc4ccccc4)nn(-c4ccc(S(=O)(=O)Nc5ccncn5)cc4)c3C)cc2)no1	> 200	> 200	
Cc1nc2c(c(N3CCN(C)CC3)n1)Cc1ccccc1-2	> 200	41.7	

SMILES	EC50 [µM]	IC50 [µM]	outcome
C=C1c2[nH]c3c([N+](=O)[O-])c(OC)ccc3c2CCN1C(C)=O			inactive
COc1ccc(NC(=O)/C(=C/N2C(=O)/C(=C/c3ccc(OC)c(OC)c3)NC2=S)C(C)=O)cc1	> 200	23.4	
COC1=C(OC)C(=O)C(C/C=C(\C)CC/C=C(\C)CC/C=C(\C)CC/C=C(\C)CC/C=C(\C)CC/C=C(\C)CC/C=C(\C)CC/C=C(\C)CC/C=C(\C)CCC=C(C)C)=C(C)C1=O	> 110	> 110	
NC(=O)C(=O)N/N=C(\CC1(O)C(=O)Nc2ccccc21)c1ccc2ccccc2c1 (stereo not given)	> 33.9	> 33.9	
C1CCC(CC[N+]23CC[N+](CCC4CCCC4)(CC2)C3)C1	> 692	347	
CCOC(=O)c1c[nH]c2cc3c(cc2c1=O)CCS3	> 200	115	
O=C1C(c2[nH]c3cc4c(cc3c2O)OCO4)=Nc2cc3c(cc21)OCO3	> 100	14.8	
COc1cc(/C=C/c2ccc(/C=C/c3cc(OC)c(OC)c(OC)c3)cc2)cc(OC)c1OC			inactive
CC1([N+](=O)[O-])COP(=O)(Nc2cccc(Cl)c2)OC1 (stereo not given)	> 813	398	
CCCC(=O)OCC1(Cl)CCC2c3c(c4ccccc4n3C)CC1N2Cc1ccccc1 (stereo not given)	> 11.5	6.92	
COC(=O)C(C)(C)NC(=O)C(C)(C)NC(=O)C(CC(=O)OC(C)(C)C)NC(=O)OC(C)(C)C (stereo not given) (Boc-[ξD](OtBu)-[Aib]-[Aib]-OMe)	> 200	> 200	
Cc1ccc([N+](=O)[O-])cc1NC(=O)Nc1onc(C)c1C	> 200	9.77	
O=C1C2C3CC4C5C3C1C5C1(SCCS1)C42 (stereo not given)			inactive
C1CC[N+]2(C1)CC[N+]1(CCCC1)CC2	> 200	> 200	
O=C(O)c1cccc(C(=O)c2ccccc2)c1	> 200	> 200	
CC(=O)OC1=NN=C2COC(c3ccccc3OC(C)=O)=NN2C1	> 200	115	
O=C(Nc1ccc(S(=O)(=O)c2ccc(NC(=O)c3cc(S(=O)(=O)O)ccc3O)cc2)cc1)c1cc(S(=O)(=O)O)ccc1O (tested in a mixture with another compound)	162	> 200	
O=S(=O)(O)c1ccc2c(c1)Sc1cc(S(=O)(=O)O)ccc1O2			inactive
COc1c(C)c2c(c(=O)c3c(C)cccc3n2C)c2c1c(=O)c1c(C)cccc1n2C	> 200	155	
CCc1nnc(-c2nsc3ccccc23)s1	> 145	126	
O/N=C1/C(=C/c2ccc(Oc3ccccc3)cc2)CCCC1C(NO)c1ccc(Oc2ccccc2)cc1 (stereo not given)	> 10.2	> 10.2	

SMILES	EC50 [µM]	IC50 [µM]	outcome
O=C(/C(=C/c1ccccc1Cl)c1ccccc1)c1ccccc1	> 8.51	> 8.51	
CCCCCCCCCCCCCCCC(=O)Nc1ccn(C2CC(OP(=O)(O)OCC3OC(n4cc(C)c(=O)[nH]c4=O)CC3N=[N+]=[N-])C(CO)O2)c(=O)n1 (stereo not given)	0.813	> 100	
CC(C)CCC[C@@H](C)[C@H]1CC[C@H]2[C@@H]3CC[C@H]4C[C@@H](CC/C=C(/c5ccc(OCc6ccccc6B(O)O)c(C(=O)O)c5)c5cc(Cl)c(OCc6ccccc6B(O)O)c(C(=O)O)c5)CC[C@]4(C)[C@H]3CC[C@]12C	> 200	> 200	
CCOC(=O)C(=O)Nc1ccc(Cl)cc1C	> 389	331	
CSc1nc(C)c2c(n1)N(c1ccc(Cl)cc1)CC2	> 200	> 200	
O=C(O)c1nc2ccc(C(F)(F)F)cc2nc1NCc1ccc(Cl)c(Cl)c1	> 200	19.1	
O=C(O)c1nn(-c2ccccc2)nc1-c1nn(-c2ccccc2)nc1C(=O)O	> 200	> 200	
COC(=O)c1ccc(CCc2cc(O)ccc2O)cc1	> 200	4.9	
CCOC(=O)c1cccc2c(Nc3ccc(S(=O)(=O)Nc4cc(C)on4)cc3)c3ccccc3nc12	> 200	25.1	
Cn1cc(C(=O)C[n+]2ccccc2)c2ccccc21	> 224	81.3	
COCOc1c(C(O[Si](C)(C)C(C)(C)C)c2cnc(Sc3ccccc3)n2C)ccc(OC)c1OC (stereo not given)	> 200	4.27	
Cc1ccc(S(=O)(=O)N2CCSCCN(S(=O)(=O)c3ccc(C)cc3)CCN(S(=O)(=O)c3ccc(C)cc3)CC2)cc1	> 4.17	> 4.17	
Cc1cc2c(cc1C)C(=O)C1(C2)Cc2c(ccc(C)c2C)C1=O (stereo not given)	> 100	> 100	
COC(=O)CCC12CCC(=O)C1[C@@H](C(=O)OC)C[C@H]2C(=O)OC (stereo not given in full)			inactive
Cc1c(Cc2ccccc2)n(C(C)OCCN(OC(=O)Oc2ccccc2)C(=O)Oc2ccccc2)c(=O)[nH]c1=O (stereo not given)	> 200	53.7	
Cc1ccc(S(=O)(=O)N/N=C(/CC(=O)c2c(C)n([O-])c3ccccc3[n+]2=O)C(=O)Nc2ccc(C)c(C)c2)cc1	> 6.46	> 6.46	
N#CC(C#N)=Cc1ccc(C#N)cc1	> 141	20.4	
[O]=[Bi](=[O])[O]CC(O)CO (stereo not given)	> 4.37	> 4.37	
CCOC(=O)/C(ON)=C(/CC/C(C(=O)OC)=C(\ON)C(=O)OCC)C(=O)OC	155	617	

From PubChem BioAssay AID179 (DTP/NCI, 2004)
